In patent publication US20230374038A1, “MODULATORS OF CYSTIC FIBROSIS TRANSMEMBRANE CONDUCTANCE REGULATOR” (VERTEX PHARMACEUTICALS INCORPORATED, priority 2020, published 2023):
pEC50: −log10 of the molar value.

Biological target: T1, CFTR (Homo sapiens, UniProt P13569, DEL508-508)
T1 construct: endogenous in cells; host or cells: primary human bronchial epithelial cells, F508del/MF genotype
Test: HBE Assay: Ussing chamber assay of CFTR-mediated short-circuit currents in F508del/MF-HBE cells with 1 μM Ivacaftor
Format: cell-based
Conditions: 20% human serum; for HBE Activity at 10 μM: single fixed concentration of 10 μM; for Emax: compared to known Vertex corrector with 18 μM Tezacaftor and 1 μM Ivacaftor, read-out: HBE Max activity (%)
Method in brief: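 F508del/MF-HBE cells at air-liquid interface >14 days were incubated 18-24 h at 37° C with corrector (concentration range or fixed 10 μM) plus 1 μM Ivacaftor in 20% human serum, compounds kept throughout. Ussing chamber, Vhold=0 mV, 37° C, apical amiloride 30 μM; ISC (μA/cm^2) from peak 20 μM forskolin response to steady state after CFTR inhibitor cocktail.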

[1] = with 1 μM Ivacaftor, 18-24 hours
[2] = range of concentrations with 1 μM Ivacaftor, 18-24 hours

T1 sequence (P13569 with tags, fused parts or gaps DEL508-508): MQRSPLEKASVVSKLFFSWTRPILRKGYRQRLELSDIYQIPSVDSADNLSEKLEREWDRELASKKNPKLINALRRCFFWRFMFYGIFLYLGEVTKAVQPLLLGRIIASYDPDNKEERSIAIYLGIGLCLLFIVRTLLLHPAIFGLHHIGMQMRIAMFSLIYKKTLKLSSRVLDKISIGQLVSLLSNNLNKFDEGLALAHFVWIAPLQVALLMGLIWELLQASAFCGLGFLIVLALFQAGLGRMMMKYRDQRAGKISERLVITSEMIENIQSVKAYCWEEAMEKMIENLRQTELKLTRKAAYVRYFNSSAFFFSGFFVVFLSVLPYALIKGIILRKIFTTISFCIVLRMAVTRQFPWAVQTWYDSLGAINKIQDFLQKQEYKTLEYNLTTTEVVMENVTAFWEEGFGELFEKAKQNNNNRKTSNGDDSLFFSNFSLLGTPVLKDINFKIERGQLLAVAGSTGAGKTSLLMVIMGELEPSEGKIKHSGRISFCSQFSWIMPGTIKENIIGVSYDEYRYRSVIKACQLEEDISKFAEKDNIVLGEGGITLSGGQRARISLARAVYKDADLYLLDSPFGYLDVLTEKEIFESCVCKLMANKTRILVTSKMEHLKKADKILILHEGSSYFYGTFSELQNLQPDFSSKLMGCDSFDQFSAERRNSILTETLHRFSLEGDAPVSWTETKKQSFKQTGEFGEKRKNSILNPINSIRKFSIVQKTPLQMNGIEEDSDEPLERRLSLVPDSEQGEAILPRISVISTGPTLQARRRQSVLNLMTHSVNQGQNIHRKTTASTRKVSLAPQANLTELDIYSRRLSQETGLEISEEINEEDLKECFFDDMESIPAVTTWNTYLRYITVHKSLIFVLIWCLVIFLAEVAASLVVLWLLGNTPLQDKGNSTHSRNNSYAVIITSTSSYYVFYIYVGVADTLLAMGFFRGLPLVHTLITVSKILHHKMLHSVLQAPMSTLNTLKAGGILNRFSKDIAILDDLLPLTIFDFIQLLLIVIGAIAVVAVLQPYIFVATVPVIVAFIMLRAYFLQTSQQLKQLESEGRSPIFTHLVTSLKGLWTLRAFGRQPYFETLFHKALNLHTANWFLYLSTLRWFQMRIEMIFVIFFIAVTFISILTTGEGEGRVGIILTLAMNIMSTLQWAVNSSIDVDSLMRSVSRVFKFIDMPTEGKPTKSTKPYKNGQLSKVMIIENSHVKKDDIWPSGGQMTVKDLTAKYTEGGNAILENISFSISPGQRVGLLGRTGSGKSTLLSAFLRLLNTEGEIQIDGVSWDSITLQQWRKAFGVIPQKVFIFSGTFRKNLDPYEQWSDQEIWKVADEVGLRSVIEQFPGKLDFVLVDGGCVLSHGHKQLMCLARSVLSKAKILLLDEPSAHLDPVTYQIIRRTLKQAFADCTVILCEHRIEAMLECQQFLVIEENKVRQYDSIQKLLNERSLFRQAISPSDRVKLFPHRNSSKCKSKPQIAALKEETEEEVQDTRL

Row | SMILES | pEC50 [1] | HBE Max Activity [1] | further results
1 | Cc1cccc(CC(C)C)c1-c1nc2nc(c1C)OC[C@@H](C(C)C)N(Cc1ncc(N3CCC(C)(C)C3)cn1)C(=O)c1cccc(c1)S(=O)(=O)N2 [Compound 240] | 5.52 to 6.00 | +++ (+++ is >600%) | 
2 | Cc1cccc(C)c1-c1nc2nc(c1C)OC[C@@H](CC(C)C)N(Cc1ncc(OC(C)C)cn1)C(=O)c1cccc(c1)S(=O)(=O)N2 [Compound 193] | > 6.00 | +++ (+++ is >600%) | 
3 | Cc1cccc(CC(C)C)c1-c1nc2nc(c1C)OC[C@@H](CC(C)(C)C)N(Cc1ncc(N(C)CC(C)(C)C)cn1)C(=O)c1cccc(c1)S(=O)(=O)N2 (single isomer, unassigned) [Compound 211] | > 6.00 | +++ (+++ is >600%) | 
4 | Cc1cccc(CC2CCOCC2)c1-c1nc2nc(c1C)OC[C@@H](CC(C)(C)C)N(Cc1ccc(N3CCOCC3)cn1)C(=O)c1cccc(c1)S(=O)(=O)N2 (atropisomer, axis not shown) [Compound 274] |  |  | HBE Activity at 10 μM (with 1 μM Ivacaftor): ++ (++ is 30-60%)
5 | Cc1cccc(C)c1-c1nc2nc(c1F)OC[C@@H](CC(C)(C)C)N(Cc1ncc(OC(C)C)cn1)C(=O)c1cccc(c1)S(=O)(=O)N2 [Compound 335] |  |  | pEC50 [2]: > 6.00; Emax [1]: > 60%
6 | Cc1cccc(CC(C)C)c1-c1nc2nc(c1C)OC[C@@H](CC(C)(C)C)NC(=O)c1cccc(c1)S(=O)(=O)N2 (atropisomer, axis not shown) [Compound 227] |  |  | HBE Activity at 10 μM (with 1 μM Ivacaftor): +++ (+++ is >600%)
7 | Cc1cccc(CC(C)C)c1-c1nc2nc(c1C)OC[C@@H](CC(C)(C)C)N(Cc1cccc(N(C)C(C)C)n1)C(=O)c1cccc(c1)S(=O)(=O)N2 (atropisomer, axis not shown) [Compound 235] | > 6.00 | +++ (+++ is >600%) | 
8 | Cc1cccc(CC(C)C)c1-c1nc2nc(c1C)OC[C@@H](CC(C)(C)C)N(Cc1cncc(N(C)C(C)C)n1)C(=O)c1cccc(c1)S(=O)(=O)N2 (atropisomer, axis not shown) [Compound 238] | > 6.00 | +++ (+++ is >600%) | 
9 | Cc1cccc(C(C)C)c1-c1nc2nc(c1C)OC[C@@H](CC(C)(C)C)N(Cc1cnc(C3CCOCC3)cn1)C(=O)c1cccc(c1)S(=O)(=O)N2 (atropisomer, axis not shown) [Compound 318] |  |  | HBE Activity at 10 μM (with 1 μM Ivacaftor): +++ (+++ is >600%)
10 | Cc1ccnc(CN2C(=O)c3cccc(c3)S(=O)(=O)Nc3nc(c(C)c(-c4c(C)cccc4CC4CCCCC4)n3)OC[C@H]2CC(C)(C)C)n1 (atropisomer, axis not shown) [Compound 258] | > 6.00 | +++ (+++ is >600%) | 
11 | Cc1cccc(CC(C)C)c1-c1nc2nc(c1C)OC[C@@H](CC(C)(C)C)N(Cc1ncc(OC(C)C)cn1)C(=O)c1cccc(c1)S(=O)(=O)N2 (atropisomer, axis not shown) [Compound 233] | > 6.00 | +++ (+++ is >600%) | 
12 | Cc1cccc(C)c1-c1nc2nc(c1F)OC[C@@H](CC(C)(C)C)N(Cc1ncc(OC3CCC3)cn1)C(=O)c1cccc(c1)S(=O)(=O)N2 [Compound 336] |  |  | pEC50 [2]: > 6.00; Emax [1]: > 60%
13 | Cc1cccc(CC2CCCC2)c1-c1nc2nc(c1C)OC[C@@H](CC(C)(C)C)NC(=O)c1cccc(c1)S(=O)(=O)N2 (atropisomer, axis not shown) [Compound 225] |  |  | HBE Activity at 10 μM (with 1 μM Ivacaftor): +++ (+++ is >600%)
14 | Cc1cccc(CC(C)(C)C)c1-c1nc2nc(c1C)OC[C@@H](CC(C)(C)C)N(Cc1ncc(OC(C)C)cn1)C(=O)c1cccc(c1)S(=O)(=O)N2 (atropisomer, axis not shown) [Compound 351] |  |  | pEC50 [2]: > 6.00; HBE Activity at 10 μM (%) (single fixed concentration of 10 μM with 1 μM Ivacaftor, 18-24 hours): +++ (+++ is >60%); Emax [1]: > 60%
15 | Cc1cccc(CC(C)C)c1-c1nc2nc(c1C)OC[C@@H](CC(C)(C)C)N(Cc1ncc(N3CCOCC3)cn1)C(=O)c1cccc(c1)S(=O)(=O)N2 (atropisomer, axis not shown) [Compound 296] | > 6.00 | +++ (+++ is >600%) | 
16 | CCOc1cnc(CN2C(=O)c3cccc(c3)S(=O)(=O)Nc3nc(c(C)c(-c4c(C)cccc4CC(C)C)n3)OC[C@H]2CC(C)(C)C)nc1 (atropisomer, axis not shown) [Compound 339] |  |  | pEC50 [2]: > 6.00; Emax [1]: > 60%
17 | Cc1cccc(CC(C)C)c1-c1nc2nc(c1C)OC[C@@H](CC(C)(C)C)N(Cc1ncc(N3CCOCC3)cn1)C(=O)c1cccc(c1)S(=O)(=O)N2 (atropisomer, axis not shown) [Compound 295] | > 6.00 | +++ (+++ is >600%) | 
18 | Cc1cccc(CC(C)C)c1-c1nc2nc(c1C)OC[C@@H](CC(C)C)N(Cc1cnc(C3CCOCC3)cn1)C(=O)c1cccc(c1)S(=O)(=O)N2 (atropisomer, axis not shown) [Compound 315] |  |  | HBE Activity at 10 μM (with 1 μM Ivacaftor): +++ (+++ is >600%)
19 | Cc1cccc(CC2CCCCC2)c1-c1nc2nc(c1C)OC[C@@H](CC(C)(C)C)N(Cc1cccc(N(C)CC(C)(C)C)n1)C(=O)c1cccc(c1)S(=O)(=O)N2 (atropisomer, axis not shown) [Compound 259] | > 6.00 | +++ (+++ is >600%) | 
20 | Cc1cccc(C2CC2)c1-c1nc2nc(c1C)OC[C@@H](CC(C)(C)C)N(Cc1cnc(C3CCOCC3)cn1)C(=O)c1cccc(c1)S(=O)(=O)N2 (atropisomer, axis not shown) [Compound 320] | > 6.00 | +++ (+++ is >600%) | 
21 | Cc1cccc(CC2CCCC2)c1-c1nc2nc(c1C)OC[C@@H](CC(C)(C)C)N(Cc1cccc(N3CCC[C@H]3C)n1)C(=O)c1cccc(c1)S(=O)(=O)N2 (atropisomer, axis not shown) [Compound 269] |  |  | HBE Activity at 10 μM (with 1 μM Ivacaftor): +++ (+++ is >600%)
22 | Cc1cccc(CC(C)C)c1-c1nc2nc(c1C)OC[C@@H](CC(C)(C)C)N(Cc1cnc(C3CCOCC3)cn1)C(=O)c1cccc(c1)S(=O)(=O)N2 (atropisomer, axis not shown) [Compound 313] | > 6.00 | +++ (+++ is >600%) | 
23 | Cc1cccc(CC(C)C)c1-c1nc2nc(c1C)OC[C@@H](CC(C)C)N(Cc1cccc(N3CCC[C@H]3C)n1)C(=O)c1cccc(c1)S(=O)(=O)N2 (atropisomer, axis not shown) [Compound 237] | > 6.00 | +++ (+++ is >600%) | 
24 | Cc1cccc(CC2CCCCC2)c1-c1nc2nc(c1C)OC[C@@H](CC(C)(C)C)N(Cc1ncc(N(C)CC(C)(C)C)cn1)C(=O)c1cccc(c1)S(=O)(=O)N2 (atropisomer, axis not shown) [Compound 282] | 5.52 to 6.00 | +++ (+++ is >600%) | 
